Measured values: BindingDB's records for doi:10.1016/j.bmcl.2015.05.100 (Eli Lilly, 2015)

How the values were obtained:
[1] = target: Cyclin-dependent kinase 4 (Homo sapiens, UniProt P11802); assay: Inhibition of CDK4 (unknown origin) using GST-fused pRb (792 to 928) as substrate preincubated for 2 mins followed by [gamma-32P]-ATP addition measured after 15 mins by beta plate counting analysis
[2] = target: Cyclin-dependent kinase 2 (Homo sapiens, UniProt P24941); assay: Inhibition of CDK2 (unknown origin) using GST-fused pRb (792 to 928) as substrate preincubated for 2 mins followed by [gamma-32P]-ATP addition measured after 15 mins by beta plate counting analysis

Cyclin-dependent kinase 4, sequence (P11802 whole entry, the tested form may be a part): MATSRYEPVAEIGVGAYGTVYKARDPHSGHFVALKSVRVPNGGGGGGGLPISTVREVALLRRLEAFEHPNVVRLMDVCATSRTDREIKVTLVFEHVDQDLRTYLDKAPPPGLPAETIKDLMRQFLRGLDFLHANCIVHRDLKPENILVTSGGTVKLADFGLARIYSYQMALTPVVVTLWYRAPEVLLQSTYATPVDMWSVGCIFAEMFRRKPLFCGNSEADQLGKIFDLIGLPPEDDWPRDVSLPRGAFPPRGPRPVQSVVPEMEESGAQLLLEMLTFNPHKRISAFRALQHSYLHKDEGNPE

Row | IC50 [1] [nM] | IC50 [2] [nM] | Structure (SMILES)
1 | 2 | 43 | O=c1c(Br)cc2cnc(Nc3ccc(N4CCNCC4)cc3)nc2n1C1CCCC1
2 | – | 439 | Cc1c(Br)c(=O)n(C2CCCC2)c2nc(Nc3ccc(N4CCNCC4)cc3)ncc12 [6-bromo-8-cyclopentyl-5-methyl-2-{[4-(piperazin-1-yl)phenyl]amino}-7H,8H-pyrido[2,3-d]pyrimidin-7-one]
3 | 2 | – | CC(=O)c1c(C)c2cnc(Nc3ccc(N4CCNCC4)cc3)nc2n(C2CCCC2)c1=O [8-cyclopentyl-6-acetyl-5-methyl-2-{[4-(piperazin-1-yl)phenyl]amino}-7H,8H-pyrido[2,3-d]pyrimidin-7-one]
